Results as given in patent US20110144125A1, “Anti-Arrhythmia Agents, Methods of Their Use, Methods of Their Identification and Kits Therefore” (THE UAB RESEARCH FOUNDATION, priority 2008, published 2011).
Where a name gives a salt, the structure may show the parent alone. One block for each compound: values may come before it.

Legend:
[1] = tested on: rat left atrial appendage; test: 2-APB-induced spontaneous mechanical activity (SMA/SMEs) in isolated superfused rat left atria / left atrial appendage; settings: for effect on sporadic ectopic activity (SMA): 2-APB-treated appendages, known anti-arrhythmic agents, lidocaine data not shown; for concentration at which SMA is reduced (reversal): recorded ˜10 min after addition; for time to reversal of SMA after exposure: 20 μM 2-APB-induced SMA; for prevention of electromechanical instability in model of abnormal automaticity (FIG. 6): polyphenol then 2-APB
Protocol: Left atria were isolated from male Sprague-Dawley rats (325 to 400 g) under IP pentobarbital anesthesia (0.1 g/kg). Isolated left atria were superfused at 30° C. in Krebs-Henseleit (KH) buffer of the following mM composition: NaCl, 118; NaHCO3, 27; KCl, 4.8; MgSO4, 1.2; KH2PO4, 1.0; CaCl2, 1.8; and glucose, 11.1. Nearly isometric left atrial forces of contraction were measured as described.
Isolated superfused left atria were paced at 3 Hz. 2-APB was added to atrial superfusates from 0.015 or 0.15M DMSO stock solutions to achieve concentrations of 0, 2, 7.5, 15, or 22 μM (n=5 to 10 atria per concentration). Changes in atrial mechanical force were recorded during a subsequent 15 min superfusion.
Two groups of 5 to 6, 3 Hz paced atria were superfused in KH and exposed to 0 or 15 μM 2-APB for 10 min. The pacing stimulus was interrupted for 5 min and the number of spontaneous mechanical events (SMEs), defined as increases in mechanical force occurring in the absence of pacing, were measured as was the postrest potentiation response (PRP).
To determine whether diastolic interval affected the interaction between 2-APB and left atria, atrial pacing was decreased to 0.1 Hz, and 0, 7.5, or 22 μM 2-APB was added to the superfusate (n=6-8 per group). Superfusions continued for 15 min, and changes in atrial mechanical function were observed.
To establish whether SMA was reversible, atria (n=7) were paced at 0.1 Hz, exposed to 15 μM 2-APB for 10 min, and washed with KH. The effect of removing 2-APB on atrial mechanical function was recorded.
To test whether an anion transport inhibitor affected SMA, atria (n=7) were paced at 0.1 Hz in KH and exposed to 15 μM 2-APB. Following the appearance of SMA, they were titrated with 100 to 400 μM DIDS for 3 to 5 min at each concentration. Whether SMA occurred at the end of each titration period was recorded.
(§1) Left atria (n=10 per group) were paced at 0.1 Hz and treated with (i) 20 μM 2-APB for 10 min, (ii) with 30 nM isoproterenol for 5 min followed by 20 μM 2-APB for 10 min, and (iii) with 3 μM forskolin for 5 min followed by 20 μM 2-APB for 10 min.
The appendages then were titrated with increasing concentrations of 2-APB, and SMA was measured and recorded.
(§2) To determine the anti-arrhythmic activity of gossypol, isolated rat left atrial appendage and right ventricular muscle strips were used as model systems, as described above. Heart muscle was exposed to 20 μM 2-APB for 10 min to induce SMA, and rates of SMA were recorded as a percentage of initial SMA. The muscles then were titrated with up to 5 increasing concentrations of gossypol. Rates of SMA were recorded ˜10 min after the addition of concentration of the polyphenol.
To determine whether EGCG can prevent arrhythmia, rat left atrial appendages (n=9) were exposed to 20 μM 2-APB and rates of SMA were recorded. Groups of muscles (n=6 per) were pre-treated with 30 μM EGCG for 10 min following which they were exposed to 2-APB. Rates of SMA were recorded 10 min later.
as §2, with “whether EGCG is effective to reverse arrhythmia,” for “the anti-arrhythmic activity of gossypol,”, “Rat left atrial appendages were” for “Heart muscle was”, “left atrial appendages” for “muscles”, “the following polyphenols: EGCG, gossypol, resveratrol, and quercetin.” for “gossypol.”
To determine whether EGC can prevent arrhythmia, left atrial appendages (n=9) were exposed to 20 μM 2-APB and rates of SMA were recorded. Groups of appendages (n=6 per) were pre-treated with 30 μM EGC for 10 min following which they were exposed to 2-APB.

rat left atria = test: Spontaneous tachycardic activity (STA) in isolated rat left atria exposed to 2-APB under increased calcium load
Protocol: Male Sprague-Dawley rats (325-400 g) were anesthetized with intra-peritoneal pentobarbital (0.1 g/kg). Their right and left atria were isolated, superfused at 30° C. in Krebs-Henseleit buffer, and nearly isometric forces of contraction were measured from these muscles (Wolkowicz et al., 2002). 2-APB was prepared as a 150 mM dimethyl sulfoxide stock.
Left atria (n=8 per group) were paced at 3 Hz and (i) titrated with 0 to 30 nM isoproterenol (Ahlquist, 1970) or (ii) exposed to 3 μM forskolin (Laurenza et al., 1980). Left atrial force and frequency of contraction, the time to peak tension and relaxation times were recorded after a 3-5 min exposure to forskolin or to any concentration of isoproterenol. The 3 Hz pacing stimulus was interrupted at the end of these protocols to measure SMEs.
as §1
Left atrial contraction and relaxation times were recorded at these five times, the pacing stimulus was stopped and rates of SMA were recorded. To determine whether initial pacing rate affects left atrial response to 2-APB and isoproterenol, left atria (n=5-7 per group) were paced at 3 Hz and (i) remained untreated for 15 min, (ii) were treated with 20 μM 2-APB alone for 10 min, or (ii) were treated with 30 nM isoproterenol for 5 min followed by 20 μM 2-APB for 10 min. Atrial mechanical function was measured at these four times; the pacing stimulus then was stopped and rates of SMA were recorded.
Left atria (n=6 per group) were paced at 3 Hz, titrated with 0 to 300 nM (−)BayK 8644 ([…]-1,4-Dihydro-2,6-dimethyl-5-nitro-4-[2-(trifluormethyl)phenyl]-3-pyridinecarboxylic acid methyl ester; Franckowiak et al. 1985) or FPL-64176 ((2,5-Dimethyl-4-[2-(phenylmethyl)benzoyl]-111-pyrrole-3-carboxylic acid methyl ester; Zheng et al., 1991) and their mechanical function and rates of SMA were recorded after a 5 min exposure to any concentration of slow calcium channel activator.
Left atria (n=8 per group) were paced at 0.1 Hz, exposed to 300 nM BayK 8644 or FPL-64176 for 5 min followed by 20 μM 2-APB for 10 min. Atrial mechanical function was recorded at this time; the pacing stimulus then was stopped and rates of SMA were recorded.
To test whether ryanodine receptor calcium leak produces SMA, left atria (n=6 per group) were paced at 0.1 Hz, treated with 0 or 300 nM BayK 8644 for 5 min, and then exposed to 600 nM ryanodine (Sutko et al., 1997). Atrial mechanical function and rates of SMA were recorded 20 min after exposure to ryanodine.
Rates of SMA were measured 5 min later.
Left atria (n=7) were paced at 3 Hz, treated with 120 μM ouabain (Illanes and Marshall, 1964), and any change in mechanical function was recorded at a new steady state, ˜10 min later. These atria were exposed to 20 μM 2-APB and their mechanical function and rates of SMA were recorded 10 min later.
3 Hz-paced left atria (n=9 per group) were superfused (i) in Krebs-Henseleit alone or (ii) they were treated with 20 μM 2-APB for 10 min, (iii) with 300 nM BayK 8644 for 10 min and with 20 μM 2-APB for 10 min, or (iv) they were treated with 300 nM BayK 8644 and 20 μM 2-APB for 10 min, then with 70 μM zatebradine (3-[3-[[2-(3,4-Dimethoxyphenyl)ethyl]methylamino] propyl]-1,3,4,5-tetrahydro-7,8,-dimethoxy-2H-3-benzazepin-2-one hydrochloride) for 10 min (Baruscotti et al., 2005). Pacing was interrupted at these times and rates of SMA were recorded.

[2] = 20 μM 2-APB for 10 min, then titration
[3] = pre-treated with 30 μM for 10 min, then 20 μM 2-APB for 10 min

Compound: COc1ccccc1OCC(O)CN1CCN(CC(=O)Nc2c(C)cccc2C)CC1 (stereo not shown) [ranolazine]
effect on sporadic ectopic activity (SMA) [1]: prevent the sporadic ectopic activity | effect on tachycardic activity (STA) (rat left atria; high calcium loads, 2-APB and 300 nM (−)BayK 8644, 80 μM ranolazine): suppresses, but does not completely prevent

Compound: Cc1cc2c(C(C)C)c(O)c(O)c(C=O)c2c(O)c1-c1c(C)cc2c(C(C)C)c(O)c(O)c(C=O)c2c1O [gossypol, 7-(8-formyl-1,6,7-trihydroxy-3-methyl-5-propan-2-ylnaphthalen-2-yl)-2,3,8-trihydroxy-6-methyl-4-propan-2-ylnaphthalene-1-carbaldehyde]
concentration at which SMA dropped to zero (reversal) [1, 2]: ≥ 20 µM | concentration at which SMA is reduced (reversal) [1, 2]: ≥ 10 µM | time to reversal of SMA after exposure [1]: ≤ 10 min | prevention of electromechanical instability in model of abnormal automaticity (FIG. 6) [1]: prevent the electromechanical instability

Compound: Oc1cc(O)c2c(c1)O[C@@H](c1cc(O)c(O)c(O)c1)[C@@H](O)C2 [EGC, (−)-cis-2-(3,4,5-trihydroxyphenyl)-3,4-dihydro-1(2H)-benzopyran-3,5,7-triol]
prevention of electromechanical instability in model of abnormal automaticity (FIG. 6) [1]: prevent the electromechanical instability | SMEs after pre-treatment (prevention of SMA) [1, 3]: no SMEs

Compound: Oc1ccc(C=Cc2cc(O)cc(O)c2)cc1 [resveratrol, 5-[2-(4-hydroxyphenyl)ethenyl]benzene-1,3-diol]
prevention of electromechanical instability in model of abnormal automaticity (FIG. 6) [1]: prevent the electromechanical instability | SMEs after pre-treatment (prevention of SMA) [1, 3]: no SMEs

Compound: CCN(CC)CC(=O)Nc1c(C)cccc1C [lidocaine]
effect on sporadic ectopic activity (SMA) [1]: suppress this arrhythmic activity

Compound: CCOC(=O)C1=C(N)Oc2ccc(Br)cc2C1C(C#N)C(=O)OCC (stereo not shown) [HA14-1, ethyl 2-amino-6-bromo-4-(1-cyano-2-ethoxy-2-oxoethyl)-4H-chromene-3-carboxylate]
effect on SMA when added after 2-APB (reversal) ([1]; HA14-1 added 10 min after exposure to 2-APB): no effect on SMA | SMEs after pre-treatment (prevention of SMA) ([1]; pre-treated with 30 μM HA14-1, 2-APB 15 μM and above, vs untreated appendages): significantly fewer SMEs

IC50 (rat left atria; Rattus norvegicus, BayK 8644 and 2-APB, read-out: IC50 for reversal of STA): ~15 µM
Compound: COc1ccc(CCCOC(Cn2ccnc2)c2ccc(OC)cc2)cc1 (stereo not shown) [SKF-96365, 1-[2-(4-Methoxyphenyl)-2-[3-(4-methoxyphenyl)propoxy]ethyl-1H-imidazole hydrochloride]
prevention and reversal of SMA ([1]; data not shown): prevents and reverse SMA | reversal of STA (rat left atria; 0.1 Hz-paced, BayK 8644 and 2-APB, ˜50 μM SKF-96365): STA was suppressed | prevention of STA (rat left atria; data not shown): prevents STA

Compound: O=C(O[C@H]1Cc2c(O)cc(O)cc2O[C@H]1c1cc(O)c(O)c(O)c1)c1cc(O)c(O)c(O)c1 [EGCG, (−)-cis-2-(3,4,5-Trihydroxyphenyl)-3,4-dihydro-1(2H)-benzopyran-3,5,7-triol 3-gallate]
concentration at which SMA is reduced (reversal) [1, 2]: ≥ 20 µM | reversal of SMA ([1]; 20 μM 2-APB, unpaced, 40 μM EGCG added to the muscle bath): SMA ceased | time to reversal of SMA after exposure [1]: ≤ 10 min | prevention of electromechanical instability in model of abnormal automaticity (FIG. 6) [1]: prevent the electromechanical instability | SMEs after pre-treatment (prevention of SMA) [1, 3]: no SMEs

Compound: 2-methoxy antimycin A [2MAA]
SMEs in 2MAA-treated appendages ([1]; pre-treated with 80 μM 2MAA, 15 μM 2-APB): none

Compound: O=c1c(O)c(-c2ccc(O)c(O)c2)oc2cc(O)cc(O)c12 [quercetin, 2-(3,4-dihydroxyphenyl)-3,5,7-trihydroxy-4H-chromen-4-one]
prevention of electromechanical instability in model of abnormal automaticity (FIG. 6) [1]: prevent the electromechanical instability | SMEs after pre-treatment (prevention of SMA) [1, 3]: no SMEs

Compound: C=C[C@@]1(C)CC(=O)[C@]2(O)[C@@]3(C)[C@@H](O)CCC(C)(C)[C@@H]3[C@H](O)[C@H](OC(C)=O)[C@@]2(C)O1 [forskolin]
rate of STA (SMA frequency) in presence of 2-APB and calcium loading agent (rat left atria; 20 μM 2-APB plus 30 nM isoproterenol, 3 μM forskolin, 300 nM BayK 8644, 300 nM FPL-64176 or 120 μM ouabain, absence of pacing, 30° C.): 231±5 contractions/min

Compound: O=C(NCC1CCCCN1)c1cc(OCC(F)(F)F)ccc1OCC(F)(F)F (stereo not shown) [flecainide]
effect on sporadic ectopic activity (SMA) [1]: suppress this arrhythmic activity | effect on sporadic ectopic activity (SMA) ([1]; listed as Flecainide): suppresses SMA
